The text below walks through data of PubChem BioAssay (NCI).

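Exposure lasted 48 hours, with cells grown in 96-well plates and compounds tested at five concentrations. Here, GI50 denotes the concentration required for 50% inhibition of growth. The concentration for full growth arrest is given as TGI.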

Holding throughout (assay): NCI tumour cell line growth inhibition, 48 h
Assay [1] deals with TK-10 renal.
Assay [2] deals with CCRF-CEM leukemia.
Assay [3] concerns M14 melanoma.
For assay [4], the system named is UACC-62 melanoma.
Assay [5] concerns SK-OV-3 ovarian.
For assay [6], the system named is K-562 leukemia.
The test system of assay [7] is ACHN renal.
In assay [8] the test system is UACC-257 melanoma.
The test system of assay [9] is OVCAR-4 ovarian.
The subject of assay [10] is OVCAR-5 ovarian.

In the case of `Cc1[nH]nc(C(F)(F)F)c1N=NN(C)C`, the TGI in assay [1] came to 22.9 µM; in assay [2], 16 µM; in [3] it was 29.7 µM; in assay [4], 20.6 µM; in assay [5], 25 µM; in [6], 11.9 µM. For the same compound, the results for the TGI in [7] and in assay [8] were 18.9 µM and 28.2 µM, respectively.
Consider `O=C1c2ccccc2-[n+]2ccc3c([nH]c4ccccc43)c21`, for which the TGI in assay [1] came out at 2.72 µM; in [2], 2.27 µM; in [3], 0.365 µM; in [4], 0.699 µM; in assay [5] it was 6.27 µM; in assay [6], 3.31 µM. Besides, the TGI in assay [7] amounted to 4.08 µM; in assay [8] it was 1.88 µM; in [9], 2.02 µM; in assay [10] it was 1.48 µM.
As to `Cn1c(-c2c(N)n(Nc3cccc(Cl)c3)c3nc(C#N)c(C#N)nc23)nc2ccccc21`, the GI50 was 12.9 µM in assay [1]; 23.5 µM in assay [2]; 6.51 µM in assay [3]; 4.59 µM in [4]; 13.4 µM in assay [5]; 5.43 µM in assay [6]. Moreover, the figures for the GI50 in assay [7], in assay [8] and in assay [9] were 5.44 µM, 6.18 µM and 1.36 µM, respectively. In addition, the TGI in assay [1] was above 50 µM; in assay [2] it was above 50 µM; in [3], 20 µM; in assay [4], 14.9 µM; in assay [5], 43 µM; in assay [6], 25.5 µM. Also, the TGI stood at 15 µM in [7], 15.9 µM in assay [8] and 16.4 µM in assay [9].
`CCC1CC2C(=O)N(c3ccccc3)C(=O)C2c2[nH]c3ccccc3c21` (configuration not stated): the TGI in [1] is 68.3 µM; in [2], above 100 µM; in assay [3], above 100 µM; in assay [4], above 100 µM; in [5], 29.3 µM; in [6], above 100 µM. Besides, the TGI is above 100 µM in assay [7], 25.6 µM in assay [9] and above 100 µM in assay [10].
Turning to `COc1cccc(/C(C#N)=C/c2nc3c(N4CCOCC4)nc(Cl)nc3n2C)c1`, the GI50 is 0.318 µM in assay [2]; 1.06 µM in assay [3]; 1.2 µM in [4]; 5.42 µM in [5]; 0.447 µM in assay [6]; 0.625 µM in [7]. For the same compound, the GI50 in assay [8] was 1.41 µM; in assay [9] it was 1.23 µM; in assay [10], 1.55 µM. Moreover, the TGI in assay [2] amounted to 0.934 µM; in [3], 2.38 µM; in [4], 2.47 µM; in [5], 18.3 µM; in assay [6], 10.3 µM; in assay [7], 1.89 µM. The TGI in assay [8] is 2.9 µM; in assay [9], 2.59 µM; in [10], 3.57 µM.
As for `C=C(CC(NC(=O)c1ccc(C(CC)Cc2cnc3nc(N)nc(N)c3n2)cc1)C(=O)O)C(=O)O` (configuration not stated), the TGI in [1], in [2], in [3], in assay [4], in [5] and in [6] was above 100 µM in each case. The TGI in assay [7], in assay [8] and in [9] was above 100 µM throughout. Further, the values for the GI50 in [5], in assay [8] and in assay [9] were 0.0669 µM, 0.0599 µM and above 100 µM, respectively.
On to `COc1ccc(NC(=O)CSC2=C(Nc3cccc(Br)c3)C(=O)N(Cc3ccccc3)C2=O)cc1Cl`, for which the GI50 in assay [1] was 44.4 µM; in assay [2], 1.72 µM; in assay [3] it was above 100 µM; in assay [4], 46.2 µM; in assay [5], above 100 µM; in assay [6], 4.41 µM. The GI50 in assay [7], in assay [8] and in [9] was above 100 µM in each case. Further, the TGI was above 100 µM in assay [1]; 29.6 µM in assay [2]; above 100 µM in [3]; above 100 µM in assay [4]; above 100 µM in [5]; above 100 µM in [6]. Also, the TGI in assay [7], in [8] and in assay [9] was above 100 µM throughout.
Regarding `N#Cc1ccccc1C(Cl)(Cl)c1cnccn1`, the TGI in assay [1] is above 100 µM; in assay [2] it was 50.3 µM; in assay [4] it was above 100 µM; in [5], above 100 µM; in assay [6] it was above 100 µM; in assay [7], above 100 µM. For the same compound, the TGI in assay [8], in assay [9] and in [10] was above 100 µM in each case.
On to `CCOC(=O)C(=O)Nc1ccccc1C`, for which the TGI in [1], in assay [2], in assay [3], in assay [4], in assay [5] and in assay [6] was above 100 µM in each case. Moreover, the TGI in assay [7], in assay [9] and in assay [10] was above 100 µM throughout.
As for `CC(Oc1ccc2c(-c3ccccc3)cc(=O)oc2c1)C(=O)O` (configuration not stated), the TGI in assay [1], in assay [2], in [3], in assay [4], in assay [5] and in assay [6] was above 100 µM in each case. Moreover, the TGI in [7], in assay [8] and in assay [9] was above 100 µM throughout.
Regarding `CCNC(=O)COc1ccc(Br)cc1Br`, the TGI in assay [2], in [3], in [4], in assay [5], in [6] and in [7] was above 100 µM each time. Besides, the TGI in assay [8], in [9] and in [10] was above 100 µM each time.
`CC1=C[C@H]2c3c([nH]c4ccccc34)C(c3c[nH]c4ccccc34)[C@H]2CC1` (some centres not stated): the TGI came to 28.5 µM in assay [1]; 10.9 µM in [2]; 19.2 µM in assay [3]; 23.1 µM in assay [4]; 26.6 µM in assay [5]; 12.7 µM in assay [6]. The TGI in assay [7] was determined as 25 µM; in assay [8], 27.9 µM.
